Measurements as given in PubChem BioAssay AID588498 (Molecular Libraries Program, Specialized Chemistry Center, …, 2011).
Calls of active or inactive are those of the source.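 Rule for the calls: active = compounds that block purified firefly luciferase enzyme with half-maximal potency below 20 µM; inactive = the rest.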

Molecular target: Luciferin 4-monooxygenase (Photinus pyralis) (UniProt P08659)
Experiment: purified FLuc enzyme activity modulation – biochemical, qHTS, Km substrates, luminescence, counter-screen for EBNA-1 inhibitor project, profiling panel (AID 588498)

Luciferin 4-monooxygenase (Photinus pyralis), sequence (P08659 whole entry, looked up): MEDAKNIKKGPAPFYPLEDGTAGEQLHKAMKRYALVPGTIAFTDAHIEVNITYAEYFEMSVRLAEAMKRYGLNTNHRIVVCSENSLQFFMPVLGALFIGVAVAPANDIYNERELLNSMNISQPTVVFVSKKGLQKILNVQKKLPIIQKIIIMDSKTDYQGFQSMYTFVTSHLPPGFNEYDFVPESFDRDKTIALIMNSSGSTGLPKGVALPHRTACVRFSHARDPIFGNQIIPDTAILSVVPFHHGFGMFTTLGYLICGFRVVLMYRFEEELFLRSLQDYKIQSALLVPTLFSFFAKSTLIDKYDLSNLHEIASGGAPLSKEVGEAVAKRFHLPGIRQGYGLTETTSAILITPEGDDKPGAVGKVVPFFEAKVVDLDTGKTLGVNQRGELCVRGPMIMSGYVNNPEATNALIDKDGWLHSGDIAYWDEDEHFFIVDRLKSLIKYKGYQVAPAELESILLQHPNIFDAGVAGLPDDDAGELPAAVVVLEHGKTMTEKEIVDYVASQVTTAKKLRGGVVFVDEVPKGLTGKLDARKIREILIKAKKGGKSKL

AC50	Structure (SMILES)
4.11 µM	COc1cccc(Cn2nnc(C(=O)Nc3ccc4c(c3)OCCO4)c2N)c1
> 30 µM (inactive)	Nc1c(C(=O)Nc2cccc(C(F)(F)F)c2)nnn1Cc1cccc(Cl)c1
0.651 µM	COc1ccc2nc(NC(=O)c3ccc(C)c(C)c3)sc2c1
20.6 µM	Nc1c(C(=O)Nc2ccc3c(c2)OCCO3)nnn1Cc1cccc(C(F)(F)F)c1
3.26 µM	Nc1c(C(=O)Nc2ccc3c(c2)OCCO3)nnn1Cc1cccc(Cl)c1
2.59 µM	COc1ccc(C(=O)Nc2nc3ccc(S(C)(=O)=O)cc3s2)cc1
3.26 µM	CS(=O)(=O)c1ccc2nc(NC(=O)c3ccccc3Cl)sc2c1
> 30 µM (inactive)	Cc1ccccc1NC(=O)c1nnn(Cc2cccc(Cl)c2)c1N
2.91 µM	COc1ccc(Cn2nnc(C(=O)Nc3ccc4c(c3)OCCO4)c2N)cc1
1.83 µM	Cc1ccc(C(=O)Nc2nc3ccc(S(C)(=O)=O)cc3s2)cc1

The next lines start with the molecule.

Structure (SMILES)	AC50
Cc1cccc(-n2nnnc2SCC(=O)c2cc(C)n(CC3CCCO3)c2C)c1 (centres undefined)	18.3 µM
Cc1cc(C(=O)CSc2nnnn2-c2ccccc2)c(C)n1CC1CCCO1 (centres undefined)	2.06 µM
Cc1ccc(-n2nnnc2SCC(=O)c2cc(C)n(CC3CCCO3)c2C)cc1 (centres undefined)	6.51 µM
Cc1ccccc1C(=O)Nc1nc2ccc(S(C)(=O)=O)cc2s1	6.51 µM
Cc1cccc(C(=O)Nc2nc3ccc(S(C)(=O)=O)cc3s2)c1	2.91 µM
Cc1ccccc1-n1nnnc1SCC(=O)c1cc(C)n(CC2CCCO2)c1C (centres undefined)	2.91 µM
COCCn1c(C)cc(C(=O)CSc2nnnn2-c2ccccc2)c1C	1.63 µM
Cc1ccc(C(=O)Nc2nc3ccc(S(C)(=O)=O)cc3s2)cc1C	5.8 µM
CS(=O)(=O)c1ccc2nc(NC(=O)c3cccc(F)c3)sc2c1	0.366 µM
